In patent publication US20250002507A1, “7,8-DIHYDRO-5H-1,6-NAPHTHYRIDINE DERIVATIVES AS POSITIVE ALLOSTERIC MODULATORS OF THE MUSCARINIC ACETYLCHOLINE RECEPTOR M4 FOR TREATING NEUROLOGICAL AND PSYCHIATRIC DISORDERS” (Vanderbilt University, priority 2021, published 2025):
Where two headings read alike, the source gives them in different places.

Target: T1, Human M4 (Homo sapiens, UniProt P08173)
T1 construct: expressed in transfected cells
T1 sequence (P08173 1-479): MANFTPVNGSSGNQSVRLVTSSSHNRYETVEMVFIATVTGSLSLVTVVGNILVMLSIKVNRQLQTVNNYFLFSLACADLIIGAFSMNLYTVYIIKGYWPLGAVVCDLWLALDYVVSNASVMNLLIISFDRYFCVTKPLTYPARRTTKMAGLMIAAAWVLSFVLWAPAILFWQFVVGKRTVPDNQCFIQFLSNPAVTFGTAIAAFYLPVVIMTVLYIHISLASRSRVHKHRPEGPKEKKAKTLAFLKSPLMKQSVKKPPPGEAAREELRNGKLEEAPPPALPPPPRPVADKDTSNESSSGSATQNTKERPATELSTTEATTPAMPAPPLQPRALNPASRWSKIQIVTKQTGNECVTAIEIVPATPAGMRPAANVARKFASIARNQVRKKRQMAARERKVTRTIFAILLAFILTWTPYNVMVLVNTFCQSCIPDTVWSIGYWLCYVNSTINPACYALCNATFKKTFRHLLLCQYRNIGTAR
Assay: mAChR M4 cell-based functional assay (calcium flux, potentiation of EC20 acetylcholine response), hM4-Gqi5 CHO-K1 cells
Settings: for Emax at 30 µM: CHO-K1, % ACh maximum at 30 μM; for EC50: calcium flux, read-out: Human M4 EC50
How it was run: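 CHO-K1 cells stably expressing human M4 with chimeric Gqi5, loaded with Fluo-4 AM 50 min at 37 °C; calcium flux read by FDSS. 11-point 1:3 compound curves added, then EC20 acetylcholine at 144 s; potentiation of the EC20 response fitted by four-parameter logistic to give EC50 and Emax.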

[1] = Table 4, Human M4, read-out: Emax (% ACh maximum at 30 μM)
[2] = Table 4, potentiation of EC20 acetylcholine response, CHO-K1 cells
[3] = Table 3, Human M4, read-out: Emax (% ACh maximum at 30 μM)
[4] = Table 3, potentiation of EC20 acetylcholine response, CHO-K1 cells
[5] = hM4-Gqi5 CHO-K1 cells, PAM of EC20 acetylcholine

SMILES | Emax at 30 µM [3] [%] | EC50 [4] [nM] | Emax at 30 µM (human M4, read-out: Emax) [%] | EC50 [5] [nM] | also measured
Cc1ccc(-c2cnc3c(c2)CN(c2nn4cnnc4c(C)c2C2CC2)CC3)cn1 [Compound 347, 6-(7-cyclopropyl-8-methyl-[1,2,4]triazolo[4,3-b]pyridazin-6-yl)-3-(6-methylpyridin-3-yl)-5,6,7,8-tetrahydro-1,6-naphthyridine] |  |  |  |  | Emax at 30 µM [1]: 61%; EC50 [2]: 788 nM
COc1ccncc1-c1cnc2c(c1)CN(c1nn3cnnc3c(C)c1C)CC2 [Compound 41, 6-(7,8-dimethyl-[1,2,4]triazolo[4,3-b]pyridazin-6-yl)-3-(4-methoxy-3-pyridyl)-7,8-dihydro-5H-1,6-naphthyridine] |  |  | 81 | 442 | 
Cc1cc2nncn2nc1N1CCc2ncc(-c3ccnn3C)cc2C1 [Compound 138, 3-(2-methylpyrazol-3-yl)-6-(7-methyl-[1,2,4]triazolo[4,3-b]pyridazin-6-yl)-7,8-dihydro-5H-1,6-naphthyridine] |  |  | 105 | 574 | 
Cc1c(N2CCc3ncc(Nc4ccccc4F)cc3C2)nn2c(C)nnc2c1C [Compound 83, N-(2-fluorophenyl)-6-(3,7,8-trimethyl-[1,2,4]triazolo[4,3-b]pyridazin-6-yl)-7,8-dihydro-5H-1,6-naphthyridin-3-amine] |  |  | 99 | 361 | 
Cc1c(N2CCc3ncc(C(=O)N4CCN(C5CC5)CC4)cc3C2)nn2cnnc2c1C [Compound 122, (4-cyclopropylpiperazin-1-yl)-[6-(7,8-dimethyl-[1,2,4]triazolo[4,3-b]pyridazin-6-yl)-7,8-dihydro-5H-1,6-naphthyridin-3-yl]methanone] |  |  | 51 |  | 
Cc1c(N2CCc3ncc(C(F)(F)F)cc3C2)nn2cnnc2c1C [Compound 127, 6-(7,8-dimethyl-[1,2,4]triazolo[4,3-b]pyridazin-6-yl)-3-(trifluoromethyl)-7,8-dihydro-5H-1,6-naphthyridine] |  |  | 107 | 151 | 
Cc1c(N2CCc3ncc(N4CCN(C)C(=O)C4)cc3C2)nn2cnnc2c1C [Compound 333, 4-(6-(7,8-dimethyl-[1,2,4]triazolo[4,3-b]pyridazin-6-yl)-5,6,7,8-tetrahydro-1,6-naphthyridin-3-yl)-1-methylpiperazin-2-one] |  |  |  |  | Emax at 30 µM [1]: 52%; EC50 [2]: 1340 nM
[2H]c1nnc2c(C)c(C)c(N3CCc4ncc(Nc5cc(F)cc(F)c5F)cc4C3)nn12 [Compound 73, 6-(3-deuterio-7,8-dimethyl-[1,2,4]triazolo[4,3-b]pyridazin-6-yl)-N-(2,3,5-trifluorophenyl)-7,8-dihydro-5H-1,6-naphthyridin-3-amine] |  |  | 92 | 114 | 
Cc1c(N2CCc3ncc(C(=O)N4CCOCC4)cc3C2)nn2cnnc2c1C [Compound 58, [6-(7,8-dimethyl-[1,2,4]triazolo[4,3-b]pyridazin-6-yl)-7,8-dihydro-5H-1,6-naphthyridin-3-yl]-morpholino-methanone] |  |  | 51 |  | 
Cc1c(N2CCc3ncc(Nc4ccccc4C#N)cc3C2)nn2cnnc2c1C [Compound 52, 2-[[6-(7,8-dimethyl-[1,2,4]triazolo[4,3-b]pyridazin-6-yl)-7,8-dihydro-5H-1,6-naphthyridin-3-yl]amino]benzonitrile] |  |  | 76 | 381 | 
FC(F)(F)c1cnc2c(c1)CN(c1nn3c(C(F)(F)F)nnc3c3ccccc13)CC2 [Compound 338, 3-(trifluoromethyl)-6-(3-(trifluoromethyl)-7,8-dihydro-1,6-naphthyridin-6(5H)-yl)-[1,2,4]triazolo[3,4-a]phthalazine] |  |  |  |  | Emax at 30 µM [1]: 84%; EC50 [2]: 5400 nM
c1cc2n(n1)CCCN2c1cnc2c(c1)CN(c1nn3cnnc3c3c1CCCC3)CC2 [Compound 344, 6-(3-(6,7-dihydropyrazolo[1,5-a]pyrimidin-4(5H)-yl)-7,8-dihydro-1,6-naphthyridin-6(5H)-yl)-7,8,9,10-tetrahydro-[1,2,4]triazolo[3,4-a]phthalazine] |  |  |  |  | Emax at 30 µM [1]: 73%; EC50 [2]: 547 nM
[2H]c1nnc2c(C)c(C)c(N3CCc4ncc(-c5cn(C)nc5C)cc4C3)nn12 [Compound 76, 6-(3-deuterio-7,8-dimethyl-[1,2,4]triazolo[4,3-b]pyridazin-6-yl)-3-(1,3-dimethylpyrazol-4-yl)-7,8-dihydro-5H-1,6-naphthyridine] |  |  | 101 | 127 | 
Cc1c(N2CCc3ncc(C(=O)N(C)Cc4ccco4)cc3C2)nn2cnnc2c1C [Compound 126, 6-(7,8-dimethyl-[1,2,4]triazolo[4,3-b]pyridazin-6-yl)-N-(2-furylmethyl)-N-methyl-7,8-dihydro-5H-1,6-naphthyridine-3-carboxamide] |  |  | 55 |  | 
COC1CCN(c2cnc3c(c2)CN(c2nn4c(C(F)(F)F)nnc4c(C)c2C)CC3)CC1 [Compound 317, 6-(7,8-dimethyl-3-(trifluoromethyl)-[1,2,4]triazolo[4,3-b]pyridazin-6-yl)-3-(4-methoxypiperidin-1-yl)-5,6,7,8-tetrahydro-1,6-naphthyridine] |  |  |  |  | Emax at 30 µM [1]: 84%; EC50 [2]: 1400 nM
Cc1c(N2CCc3ncc(-c4cnn(Cc5ccccn5)c4)cc3C2)nn2cnnc2c1C [Compound 24, 6-(7,8-dimethyl-[1,2,4]triazolo[4,3-b]pyridazin-6-yl)-3-[1-(2-pyridylmethyl)pyrazol-4-yl]-7,8-dihydro-5H-1,6-naphthyridine] |  |  | 94 |  | 
CCn1ccc(-c2cnc3c(c2)CN(c2nn4cnnc4c(C)c2C)CC3)n1 [Compound 129, 6-(7,8-dimethyl-[1,2,4]triazolo[4,3-b]pyridazin-6-yl)-3-(1-ethylpyrazol-3-yl)-7,8-dihydro-5H-1,6-naphthyridine] |  |  | 99 | 210 | 

More lines, main results first:

Emax at 30 µM [3] [%] | EC50 [4] [nM] | Emax at 30 µM (human M4, read-out: Emax) [%] | EC50 [5] [nM] | SMILES | also measured
55 | 1310 |  |  | Cc1c(N2CCc3ncc(-c4cnn(Cc5ccccc5)c4)cc3C2)nn2c(C(F)(F)F)nnc2c1C [Compound 238, 3-(1-benzyl-1H-pyrazol-4-yl)-6-(7,8-dimethyl-3-(trifluoromethyl)-[1,2,4]triazolo[4,3-b]pyridazin-6-yl)-5,6,7,8-tetrahydro-1,6-naphthyridine] | 
 |  | 83 | 433 | Cc1cc2nccn2nc1N1CCc2ncc(-c3ccnn3C)cc2C1 [Compound 139, 6-(7-methylimidazo[1,2-b]pyridazin-6-yl)-3-(2-methylpyrazol-3-yl)-7,8-dihydro-5H-1,6-naphthyridine] | 
100 | 37 |  |  | Cc1c(N2CCc3ncc(N4CCCn5nccc54)cc3C2)nn2c(C(F)(F)F)nnc2c1C [Compound 267, 3-(6,7-dihydropyrazolo[1,5-a]pyrimidin-4(5H)-yl)-6-(7,8-dimethyl-3-(trifluoromethyl)-[1,2,4]triazolo[4,3-b]pyridazin-6-yl)-5,6,7,8-tetrahydro-1,6-naphthyridine] | 
84 | 7670 |  |  | Cc1c(N2CCc3ncc(OCC4COCCO4)cc3C2)nn2cnnc2c1C (stereo not drawn) [Compound 260, 3-((1,4-dioxan-2-yl)methoxy)-6-(7,8-dimethyl-[1,2,4]triazolo[4,3-b]pyridazin-6-yl)-5,6,7,8-tetrahydro-1,6-naphthyridine] | 
77 | 729 |  |  | Cc1cc(C)n(-c2cnc3c(c2)CN(c2nn4c(C(F)(F)F)nnc4c(C)c2C)CC3)n1 [Compound 243, 3-(3,5-dimethyl-1H-pyrazol-1-yl)-6-(7,8-dimethyl-3-(trifluoromethyl)-[1,2,4]triazolo[4,3-b]pyridazin-6-yl)-5,6,7,8-tetrahydro-1,6-naphthyridine] | 
78 | 330 |  |  | Cc1c(N2CCc3ncc(-c4cnn(C5CC5)c4)cc3C2)nn2c(C(F)(F)F)nnc2c1C [Compound 234, 3-(1-cyclopropyl-1H-pyrazol-4-yl)-6-(7,8-dimethyl-3-(trifluoromethyl)-[1,2,4]triazolo[4,3-b]pyridazin-6-yl)-5,6,7,8-tetrahydro-1,6-naphthyridine] | 
88 | 1060 |  |  | Cc1c(N2CCc3ncc(C(F)c4ccccc4)cc3C2)nn2c(C(F)(F)F)nnc2c1C (stereo not drawn) [Compound 285, 6-(7,8-dimethyl-3-(trifluoromethyl)-[1,2,4]triazolo[4,3-b]pyridazin-6-yl)-3-(fluoro(phenyl)methyl)-5,6,7,8-tetrahydro-1,6-naphthyridine] | 
85 | 392 |  |  | Cc1c(N2CCc3ncc(Oc4ccccc4F)cc3C2)nn2c(C(F)(F)F)nnc2c1C [Compound 277, 6-(7,8-dimethyl-3-(trifluoromethyl)-[1,2,4]triazolo[4,3-b]pyridazin-6-yl)-3-(2-fluorophenoxy)-5,6,7,8-tetrahydro-1,6-naphthyridine] | 
94 | 102 |  |  | Cc1c(N2CCc3ncc(N4CCOC(C)(C)C4)cc3C2)nn2c(C(F)(F)F)nnc2c1C [Compound 286, 4-(6-(7,8-dimethyl-3-(trifluoromethyl)-[1,2,4]triazolo[4,3-b]pyridazin-6-yl)-5,6,7,8-tetrahydro-1,6-naphthyridin-3-yl)-2,2-dimethylmorpholine] | 
